Patent publication US20140163082A1, “PYRAZOLYL COMPOUNDS FOR USE IN REVERSING REACTIVE GLIOSIS” (priority 2011, published 2014)

Assays:
[1] = test system: R28 cells; assay: Real time RT-PCR analysis, in vitro, R28; format: cell-based, rat
Procedure: A transformed Müller cell line [rMC-1] were grown in cell cultures in DMEM supplemented with 15% FBS, as well as with a fungicide mixture and 0.5% gentamicin in a humidified atmosphere of 5% CO2/95% air. Medium was changed every 2-3 days, and cells were grown to confluence in a 150-mm dish. Cells were split into 60-mm dishes and were used in the experiments when confluent. […] cells are immortalized rat retinal neurosensory/neuoroglial progenitor cells, by transfection with Adenovirus 12S E1A into the neonatal retinal tissue. […] cells express genes characteristic of neurons, as well as functional neuronal properties. […] cells were cultured in DMEM/F12 medium in a 1:1 mixture, supplemented with 5% FBS, 1.5 mM L-glutamine, 7.5 mM sodium pyruvate, 0.1 mM nonessential amino acids, 1×MEM, 0.37% sodium bicarbonate and 10 μg/ml gentamicin. Cells were incubated at 37° C. in the presence of 5% CO2. Human retinal microvascular endothelial cells [[…]][40,000 cells/well] were seeded in a 96-well plate and allowed to adhere overnight and incubated at 37° C. in normoxia. Cells were then cultured in 150 μl of CS-C medium supplemented with 10% FBS and in the presence of 1-100 μM YC-1 or DMSO [0.2%]. Cells were placed in airtight chambers [BioSpherix, Redfield, N.Y.] and the O2 tension was maintained at 1.2% by using Pro-Ox Model 110 O2 regulator [BioSpherix, Redfield, N.Y.]. The chamber was purged with a gas mixture of 5.32% CO2, and 93.48% N2. […] We used the primers summarized in [FIG. 6C] for RT-PCR. Gene-specific molecular beacons and primers were designed to encompass the genes of interest, with beacon's annealing site to overlap with the exon-exon junctions for additional specificity [Beacon Designer 6.0, Premier Biosoft International, Palo Alto, Calif., USA]. Threshold cycle [Ct] values for the different samples were utilized for the calculation of gene expression fold change using the formula 2 to the minus power of delta delta ct. Fold changes in the HIF-1, VEGF, PDGF-B, GFAP and iNOS gene relative to the β-actin endogenous control gene were determined by the following equation: fold change=2-Δ[ΔC T], where change in threshold cycle [ΔCT]=CT [gene of interest]-CT [β-actin] and Δ [ΔCT]=ΔCT [treated]-ΔCT [untreated].

[2] = test system: R28 cells; assay: GFAP immunofluorescence, R28; format: cell-based, rat; conditions: for GFAP protein expression (immunofluorescence): vs hypoxic controls
Procedure: Cells were placed in airtight chambers [BioSpherix, Redfield, N.Y.] and the O2 tension was maintained at 1.2% by using Pro-Ox Model 110 O2 regulator [BioSpherix, Redfield, N.Y.]. The chamber was purged with a gas mixture of 5.32% CO2, and 93.48% N2. […] Müller cells [rMC-1] and […] cells [2×10^4 cells per well] were grown on 8-well chamber slides and cultured in 300 μl of their growing media, which contained YC-1 [25-100 μM] or DMSO [0.2% v/v] and incubated under normoxia or hypoxia for 48 hours at 37° C. YC-1 or DMSO was added 5 minutes prior to the hypoxic incubation. The cells were fixed 48 hours later with 3.7% paraformaldehyde and permeabilized with 0.2% TritonTM X-100 in PBS. The cells were incubated for two hours with anti-GFAP antibody. Negative control experiments consisted of omission of the primary antibody. Cells were then incubated with HRP-conjugate working solution, followed by the addition of the […] solution [TSA Kit#2 and #4 for rMC-1 and […] staining, respectively] at 1:100 dilutions [Molecular Probes, Carlsbad, Calif.]. Digitized images were acquired utilizing AxioVision software [Zeiss Axiovert 135 and AxioCam]. Intensity values of immunofluorescence staining of GFAP in rMC-1 and […] cells was analyzed and quantified using MetamorphTM imaging analysis software version 6.0 [Universal Imaging, Sunnyvale, Calif.]. The staining intensity in our series ranged from a weak blush to moderate or strong. The amount of cells staining with the antibody was further categorized as focal [<10%], patchy [10%-50%], and diffuse [>50%]. For semiquantitative analysis, focal and/or weak staining was considered equivocal staining, and patchy or diffuse staining was subcategorized as either moderate or strong.

[3] = test system: endothelial tip cells; assay: Filopodia number and length on endothelial tip cells, OIR mouse model; format: in vivo, C57BL/6J mice; conditions: OIR mice injected with YC-1 [25-100 μl], vs DMSO-treated retinas
Procedure: FIG. 4 the Influence of YC-1 on filopodia number and length. […] Image of tip cells along the leading edge of vascularization from; [A] Non-treated ischemic retinas; [B] DMSO-treated retinas; [C, D, E, and F] represent retinas from animals that were injected with YC-1 [25-100 μl]. Filopodia lengths and number/tip cell were not influenced by DMSO treatment. […] [n=5 per group].
A. Filopodia from DMSO-treated retinas had approximately similar lengths as the nontreated ischemic retinas. […] [ANOVA, ***P<0.001; **P<0.01 between YC-1 and DMSO]. There were 24 tip cells/retina that were averaged. [n=5 per group].
B. DMSO has no influence on the number of filopodia/tip cell. […] [ANOVA, ***P<0.001; **P<0.01 between YC-1 and DMSO]. There were 24 tip cells/retina that were averaged. [n=5 per group].
Retinal NV was induced in newborn mice as described previously. Briefly, P7 mice were exposed with their nursing mother, for 5 days [between P7 and P12] to hyperoxic conditions, by incubating them in an airtight chamber [PROOX 110 chamber O2 controller; Biospherix Ltd., Redfield, N.Y.] ventilated by a mixture of O2 and air to a final oxygen fraction of 75±2%. These incubation conditions induced vaso-obliteration and subsequent cessation of vascular development in the capillary beds of the central retina. […]

[4] = R28, hypoxia 48 hours, YC-1 25-100 μM, vs DMSO-treated hypoxic cells
[5] = R28, 25 μM YC-1, hypoxia 48 hours

## OCc1ccc(-c2nn(Cc3ccccc3)c3ccccc23)o1 [YC-1, 3-(5′-hydroxymethyl-2′-furyl)-1-benzylindazole]
[1]; [4]
  PDGF-B mRNA level: significant dose-dependent attenuations
  VEGF mRNA level: significant dose-dependent attenuations
  iNOS mRNA level: significant dose-dependent attenuations
[1]; R28, hypoxia, YC-1 25-100 μM, vs DMSO-treated hypoxic cells, normalized to β-actin
  GFAP mRNA level: significant dose-dependent attenuations
[1]; R28, pre- vs post-YC-1 treatment
  HIF-1α message level: no differences
[2]; [5]
  GFAP cytoplasmic staining pattern/intensity (immunofluorescence): stronger diffuse cytoplasmic GFAP staining
  GFAP staining vs DMSO-treated hypoxic controls (immunofluorescence): remarkable inhibition
[2]; R28, 50 μM YC-1, hypoxia
  GFAP protein expression (immunofluorescence): significant inhibitory effects
[2]; R28, 75 μM YC-1, hypoxia
  GFAP protein expression (immunofluorescence): significant inhibitory effects
[2]; R28, 100 μM YC-1, hypoxia
  GFAP staining remaining in cytoplasm (immunofluorescence): few stained regions
[2]; R28, hypoxia, dose-dependent fashion
  GFAP protein levels (quantified staining intensity, FIG. 11C): significantly reduced
[3]
  number of filopodia on endothelial tip cells: significantly and dose-dependently reduced
  total length of filopodia on endothelial tip cells: significantly and dose-dependently reduced
